The numbers were not newly measured in patent US20060247361A1, “Polar functionalized polymer modified porous substrate for solid phase extraction” (priority 2005, published 2006), which cites them from elsewhere.

Structures are written as SMILES. Where a name gives a salt, the structure may show the parent alone.

In general, Log P refers to a log measure of how a compound divides between an organic and an aqueous phase.

Consider `CNCCC=C1c2ccccc2CCc2ccccc21` [Nortriptyline], for which the log partition coefficient (Log P) is listed as 4.74.
Turning to `CC(C)(C)NCC(O)c1ccc(O)c(CO)c1` (stereo not shown) [Salbutamol], the “Log P” value is 0.97.
As to `CN(C)CCC(c1ccc(Br)cc1)c1ccccn1` (stereo not shown) [Brompheniramine], the “Log P” value was 3.89.
With `NCCC(Oc1ccc(C(F)(F)F)cc1)c1ccccc1` (stereo not shown) [Norfluoxetine], the “Log P” value is on record as 3.75.
With `CN1CCN2c3ccccc3Cc3ccccc3C2C1` (stereo not shown) [Mianserin], the “Log P” value is reported as 3.85.
As to `CN(C)CCC(c1ccc(Cl)cc1)c1ccccn1` (stereo not shown) [Chlorpheniramine maleate], the “Log P” value is listed as 3.38.
In the case of `CC(C)(C)NC[C@H](O)COc1nsnc1N1CCOCC1` [Timolol maleate], the log partition coefficient (Log P) is recorded as 1.83.
